From PubChem BioAssay (NCI)
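How tested: cells in 96-well plates exposed to compound for 48 hours at five concentrations. The concentration for full growth arrest is given as TGI.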

Columns and labels:
Assay in all cases: NCI-60 cell line screen, 48 h
786-0 renal = system: 786-0 renal
M14 melanoma = system: M14 melanoma
SK-MEL-5 melanoma = system: SK-MEL-5 melanoma
CCRF-CEM leukemia = system: CCRF-CEM leukemia
NCI-H460 lung = system: NCI-H460 lung
MDA-MB-435 = system: MDA-MB-435
ACHN renal = system: ACHN renal
UACC-62 melanoma = system: UACC-62 melanoma
HCT-116 colon = system: HCT-116 colon
SF-295 CNS = system: SF-295 CNS
LOX IMVI melanoma = system: LOX IMVI melanoma
KM12 colon = system: KM12 colon
SK-OV-3 ovarian = system: SK-OV-3 ovarian
SF-539 CNS = system: SF-539 CNS
HOP-92 NSCLC = system: HOP-92 NSCLC
EKVX NSCLC = system: EKVX NSCLC
SW-620 colon = system: SW-620 colon
SR leukemia = system: SR leukemia
HCT-15 colon = system: HCT-15 colon
IGROV1 ovarian = system: IGROV1 ovarian
MOLT-4 leukemia = system: MOLT-4 leukemia
U251 CNS = system: U251 CNS
NCI-H23 lung = system: NCI-H23 lung
MDA-N = system: MDA-N
UO-31 renal = system: UO-31 renal
DU-145 prostate = system: DU-145 prostate
COLO 205 colon = system: COLO 205 colon
SK-MEL-2 melanoma = system: SK-MEL-2 melanoma
HOP-62 NSCLC = system: HOP-62 NSCLC
NCI-H226 lung = system: NCI-H226 lung
HL-60(TB) leukemia = system: HL-60(TB) leukemia
HS 578T breast = system: HS 578T breast
SF-268 CNS = system: SF-268 CNS
OVCAR-3 ovarian = system: OVCAR-3 ovarian
PC-3 prostate = system: PC-3 prostate
SN12C renal = system: SN12C renal
RPMI-8226 leukemia = system: RPMI-8226 leukemia
BT-549 breast = system: BT-549 breast
UACC-257 melanoma = system: UACC-257 melanoma
MALME-3M melanoma = system: MALME-3M melanoma
HCC-2998 colon = system: HCC-2998 colon
T-47D breast = system: T-47D breast
SNB-19 CNS = system: SNB-19 CNS
NCI/ADR-RES ovarian = system: NCI/ADR-RES ovarian
TK-10 renal = system: TK-10 renal
OVCAR-5 ovarian = system: OVCAR-5 ovarian
SNB-75 CNS = system: SNB-75 CNS
K-562 leukemia = system: K-562 leukemia
MDA-MB-231 breast = system: MDA-MB-231 breast
A549 NSCLC = system: A549 NSCLC
OVCAR-8 ovarian = system: OVCAR-8 ovarian
HT29 colon = system: HT29 colon
SK-MEL-28 melanoma = system: SK-MEL-28 melanoma
NCI-H522 lung = system: NCI-H522 lung
OVCAR-4 ovarian = system: OVCAR-4 ovarian
A498 renal = system: A498 renal
MCF7 breast = system: MCF7 breast
CAKI-1 renal = system: CAKI-1 renal

Measured: TGI

NCCCCCNOCCCN
not listed: A498 renal | MCF7 breast | CAKI-1 renal
> 100 µM: all other assays above

N#Cc1c(N2CCOCC2)ncn(-c2ccc(Cl)cc2)c1=O
not listed: HS 578T breast | SF-268 CNS | MALME-3M melanoma | TK-10 renal | MDA-MB-231 breast | HT29 colon | NCI-H522 lung | OVCAR-4 ovarian
> 100 µM: all other assays above
